Measurements: patent publication US8071612B2, “6-alkenyl and 6-phenylalkyl substituted 2-quinolinones and 2-quinoxalinones as poly(ADP-ribose) polymerase inhibitors” (Janssen Pharmaceutica, NV, priority 2004, dated 2011)

Key:
PARP-1 enzyme [1] = biological target: T1, PARP-1 enzyme (Homo sapiens, UniProt P09874); test: In vitro filtration assay for PARP-1 inhibitory activity; assay type: biochemical; settings: nicked DNA activated PARP-1, [32P]-NAD, histones; read-out: In vitro filtration assay pIC50 (converted)
T1 construct: made in house
T1 sequence (P09874 whole entry): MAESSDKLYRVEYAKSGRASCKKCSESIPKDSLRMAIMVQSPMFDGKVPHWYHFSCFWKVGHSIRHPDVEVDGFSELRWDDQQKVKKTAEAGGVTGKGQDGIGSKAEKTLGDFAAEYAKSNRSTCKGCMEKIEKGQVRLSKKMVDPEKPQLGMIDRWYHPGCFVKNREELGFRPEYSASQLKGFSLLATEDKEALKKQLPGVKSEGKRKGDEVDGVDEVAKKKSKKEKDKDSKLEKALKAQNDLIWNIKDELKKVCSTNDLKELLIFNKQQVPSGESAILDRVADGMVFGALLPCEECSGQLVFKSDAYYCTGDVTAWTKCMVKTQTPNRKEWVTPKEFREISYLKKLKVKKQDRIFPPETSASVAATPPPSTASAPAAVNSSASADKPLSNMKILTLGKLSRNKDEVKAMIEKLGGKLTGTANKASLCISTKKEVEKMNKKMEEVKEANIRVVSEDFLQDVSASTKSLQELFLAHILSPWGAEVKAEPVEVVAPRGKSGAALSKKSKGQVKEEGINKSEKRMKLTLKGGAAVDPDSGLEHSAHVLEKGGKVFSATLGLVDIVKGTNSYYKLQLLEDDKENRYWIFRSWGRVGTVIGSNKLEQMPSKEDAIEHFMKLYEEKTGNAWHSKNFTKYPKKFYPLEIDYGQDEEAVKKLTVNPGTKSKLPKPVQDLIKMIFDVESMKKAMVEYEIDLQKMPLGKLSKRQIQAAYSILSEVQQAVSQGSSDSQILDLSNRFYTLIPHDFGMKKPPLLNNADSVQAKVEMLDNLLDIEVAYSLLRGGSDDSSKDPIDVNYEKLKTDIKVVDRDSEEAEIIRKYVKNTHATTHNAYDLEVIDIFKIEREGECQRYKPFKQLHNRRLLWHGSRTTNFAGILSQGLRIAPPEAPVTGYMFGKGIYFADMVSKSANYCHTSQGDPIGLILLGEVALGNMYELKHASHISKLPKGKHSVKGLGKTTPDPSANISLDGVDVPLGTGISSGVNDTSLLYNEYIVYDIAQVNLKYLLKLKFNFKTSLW
Description: Compounds of the present invention were tested in an in vitro filtration assay assessing PARP-1 activity (triggered in the presence of nicked DNA) by means of its histone poly (ADP-ribosyl)ation activity using [^32P]-NAD as ADP-ribosyl donor. The radioactive ribosylated histones were precipitated by trichloroacetic acid (TCA) in 96-well filterplates and the incorporated [^32P] measured using a scintillation counter
A mixture of histones (stock solution: 5 mg/ml in H2O), NAD (stock solution: 100 mM in H2O), and [^32P]-NAD^+ in incubation buffer (50 mM Tris/HCl, pH 8; 0.2 mM DTT; 4 mM MgCl2) was made. A mixture of the PARP-1 enzyme (5-10 μg/ml) and nicked DNA was also made. The nicked DNA was prepared as described in the in vitro SPA for PARP-1 inhibitory activity. Seventy-five μl of the PARP-1 enzyme/DNA mixture together with 1 μl of compound in DMSO and 25 μl of histones-NAD^+/[^32P]-NAD^+ mixture was added per well of a 96-well filterplate (0.45 μm, supplier Millipore). The final concentrations in the incubation mixture were 2 μg/ml for the histones, 0.1 mM for the NAD^+, […] (0.5 μC) for the [^32P]-NAD^+ and 2 μg/ml for the nicked DNA. Plates were incubated for 15 min. at room temperature and the reaction was terminated by the addition of 10 μl ice cold 100% TCA followed by the addition of 10 μl ice-cold BSA solution (1% in H2O). The protein fraction was allowed to precipitate for 10 min. at 4° C. and plates were vacuum filtered. The plates were subsequently washed with, for each well, 1 ml of 10% ice cold TCA, 1 ml of 5% ice cold TCA and 1 ml of 5% TCA at room temperature. Finally 100 μl of scintillation solution (Microscint 40, Packard) was added to each well and the plates were transferred to a TopCountNXT™ (supplier: Packard) for scintillation counting and values were expressed as counts per minute (cpm). For each experiment, controls (containing PARP-1 enzyme and DMSO without compound), a blank incubation (containing DMSO but no PARP-1 enzyme or compound) and samples (containing PARP-1 enzyme and compound dissolved in DMSO) were run in parallel. All compounds tested were dissolved and eventually further diluted in DMSO. In first instance, compounds were tested at a concentration of 10^−5M. […] In each test, the blank value was subtracted from both the control and the sample values. The control sample represented maximal PARP-1 enzyme activity. For each sample, the amount of cpm was expressed as a percentage of the mean cpm value of the controls. When appropriate, IC50-values (concentration of the drug, needed to reduce the PARP-1 enzyme activity to 50% of the control) were computed using linear interpolation between the experimental points just above and below the 50% level. Herein the effects of test compounds are expressed as pIC50 (the negative log value of the IC50-value). As a reference compound, 4-amino-1,8-naphthalimide was included to validate the filtration assay.

PARP-1 enzyme [2] = biological target: T1, PARP-1 enzyme; test: In vitro Scintillation Proximity Assay (SPA) for PARP-1 inhibitory activity; assay type: biochemical; settings: nicked DNA activated PARP-1, [3H]-NAD+, biotinylated histones; read-out: In vitro SPA pIC50 (converted)
Description: Compounds of the present invention were tested in an in vitro assay based on SPA technology (proprietary to Amersham Pharmacia Biotech).
In principle, the assay relies upon the well established SPA technology for the detection of poly(ADP-ribosyl)ation of biotinylated target proteins, i.e histones. This ribosylation is induced using nicked DNA activated PARP-1 enzyme and [^3H]-nicotinamide adenine dinucleotide ([^3H]-NAD^+) as ADP-ribosyl donor.
As inducer of PARP-1 enzyme activity, nicked DNA was prepared. For this, 25 mg of DNA (supplier: Sigma) was dissolved in 25 ml DNAse buffer (10 mM Tris-HCl, pH 7.4; 0.5 mg/ml Bovine Serum Albumine (BSA); 5 mM MgCl2.6H2O and 1 mM KCl) to which 50 μl DNAse solution (1 mg/ml in 0.15 M NaCl) was added. After an incubation of 90 min. at 37° C., the reaction was terminated by adding 1.45 g NaCl, followed by a further incubation at 58° C. for 15 min. The reaction mixture was cooled on ice and dialysed at 4° C. for respectively 1.5 and 2 hours against 1.5 l of 0.2 M KCl, and twice against 1.5 l of 0.01 M KCl for 1.5 and 2 h respectively. The mixture was aliquoted and stored at −20° C. Histones (1 mg/ml, type II-A, supplier: Sigma) were biotinylated using the biotinylation kit of Amersham and stored aliquoted at −20° C. A stock solution of 100 mg/ml SPA poly(vinyl toluene) (PVT) beads (supplier: Amersham) was made in PBS. A stock solution of [^3]H-NAD^+ was made by adding 120 μl of [^3H]-NAD^+ (0.1 mCi/ml, supplier: NEN) to 6 ml incubation buffer (50 mM Tris/HCl, pH 8; 0.2 mM DTT; 4 mM MgCl2). A solution of 4 mM NAD^+ (supplier: Roche) was made in incubation buffer (from a 100 mM stock solution in water stored at −20° C.). The PARP-1 enzyme was produced using art known techniques, i.e. cloning and expression of the protein starting from human liver cDNA. Information concerning the used protein sequence of the PARP-1 enzyme including literature references can be found in the Swiss-Prot database under primary accession number P09874. Biotinylated histones and PVT-SPA beads were mixed and pre-incubated for 30 min. at room temperature. PARP-1 enzyme (concentration was lot dependent) was mixed with the nicked DNA and the mixture was pre-incubated for 30 min. at 4° C. Equal parts of this histones/PVT-SPA beads solution and PARP-1 enzyme/DNA solution were mixed and 75 μl of this mixture together with 1 μl of compound in DMSO and 25 μl of [^3H]-NAD^+ was added per well into a 96-well microtiterplate. The final concentrations in the incubation mixture were 2 μg/ml for the biotinylated histones, 2 mg/ml for the PVT-SPA beads, 2 μg/ml for the nicked DNA and between 5-10 μg/ml for the PARP-1 enzyme. After incubation of the mixture for 15 min. at room temperature, the reaction was terminated by adding 100 μl of 4 mM NAD^+ in incubation buffer (final concentration 2 mM) and plates were mixed.
The beads were allowed to sediment for at least 15 min. and plates transferred to a TopCountNXT™ (Packard) for scintillation counting, values were expressed as counts per minute (cpm). For each experiment, controls (containing PARP-1 enzyme and DMSO without compound), a blank incubation (containing DMSO but no PARP-1 enzyme or compound) and samples (containing PARP-1 enzyme and compound dissolved in DMSO) were run in parallel. All compounds tested were dissolved and eventually further diluted in DMSO. In first instance, compounds were tested at a concentration of 10^−5 M or 10^−6M. […] In each test, the blank value was subtracted from both the control and the sample values. The control sample represented maximal PARP-1 enzyme activity. For each sample, the amount of cpm was expressed as a percentage of the mean cpm value of the controls. When appropriate, IC50-values (concentration of the drug, needed to reduce the PARP-1 enzyme activity to 50% of the control) were computed using linear interpolation between the experimental points just above and below the 50% level. […]

SMILES | IC50 (PARP-1 enzyme [1]) | IC50 (PARP-1 enzyme [2])
Cc1cc2cc(C(NC(=O)NCCCN3CCCCC3)c3ccccc3)ccc2[nH]c1=O (stereo not drawn) [Compound 7] | 7.33 µM | 1.43 µM
Cc1cc2cc(C(c3ccccc3)c3cncn3C)ccc2[nH]c1=O (stereo not drawn) [Compound 10] | 2.39 µM | 0.711 µM
CCc1cc2cc(C(c3ccccc3)N3CCC(NCCOC)CC3)ccc2[nH]c1=O (stereo not drawn) [Compound 13] | 2.11 µM | 0.22 µM
Cc1cc2cc(C(NCCCc3cccs3)c3ccccc3)ccc2[nH]c1=O (stereo not drawn) [Compound 23] | 3.27 µM | 1.41 µM
Cc1cc2cc(C(NCCCn3cccc3)c3ccccc3)ccc2[nH]c1=O (stereo not drawn) [Compound 24] | 7.59 µM | 2.72 µM
CC(=O)NCCNC(c1ccccc1)c1ccc2[nH]c(=O)c(C)cc2c1 (stereo not drawn) [Compound 25] | 3.9 µM | 0.498 µM
CCc1cc2cc(C(NCCCN3CCCCC3)c3ccccc3)ccc2[nH]c1=O (stereo not drawn) [Compound 26] | 0.918 µM | 0.119 µM
Cc1cc2cc(C(NCCC(=O)c3ccccc3)c3ccccc3)ccc2[nH]c1=O (stereo not drawn) [Compound 27] | 2.33 µM | 0.925 µM
CCc1cc2cc(C(OCCN(C)C)c3ccccc3)ccc2[nH]c1=O (stereo not drawn) [Compound 28] | 0.773 µM | 0.226 µM
Cc1cc2cc(C(NCCO)c3ccccc3)ccc2[nH]c1=O (stereo not drawn) [Compound 29] | 4.78 µM | 0.796 µM
CCc1nc2cc(C(c3ccccc3)n3cncn3)ccc2[nH]c1=O (stereo not drawn) [Compound 30] | 1.8 µM | 0.362 µM
CCc1cc2cc(C(c3cccc(C(F)(F)F)c3)N3CCC(=O)CC3)ccc2[nH]c1=O (stereo not drawn) [Compound 37] | 1.17 µM | 0.302 µM
CCc1cc2cc(C(c3ccc(Cl)cc3)N3CCC(=O)CC3)ccc2[nH]c1=O (stereo not drawn) [Compound 38] | 2.65 µM | 0.316 µM
CCc1cc2cc(C(c3ccccc3)N3CCN(C)CC3)ccc2[nH]c1=O (stereo not drawn) [Compound 39] | 10 µM | 0.596 µM
CCc1cc2cc(C(c3cccc(C(F)(F)F)c3)n3cnnc3)ccc2[nH]c1=O (stereo not drawn) [Compound 72] | 2.1 µM | 0.211 µM
CCc1cc2cc(C(c3cccc(Cl)c3)N3CCC(=O)CC3)ccc2[nH]c1=O (stereo not drawn) [Compound 77] | 1.74 µM | 0.252 µM
CCc1cc2cc(C(c3cccc(C(F)(F)F)c3)n3cncn3)ccc2[nH]c1=O (stereo not drawn) [Compound 78] | 2.37 µM | 0.197 µM
CCc1cc2cc(C(c3cccc(C(F)(F)F)c3)N3CCN(C)CC3)ccc2[nH]c1=O (stereo not drawn) [Compound 80] | 3.91 µM | 0.692 µM
